System: Chilo suppressalis
Test: Rice field trials, Chilo suppressalis insect damage / white heads (Example 1, Trials 3-4, Thailand)
Assay type: in vivo
Details: Trial 3
Protocol: All applications were made with an EC formulation containing 650 g/L of pelargonic acid (e.g., 685 g/L of 95% purity pelargonic acid), an anionic emulsifier and a branched fatty acid ester solvent. […] Trials 1 4 assessing the use of pelargonic acid for controlling Chilo suppressalis in rice were conducted in Spain and Thailand. Application A was made to the crops at the beginning of infestations; for these trials, Stage BBCH 59; Application B was made 14 days after Application A. Trial 3 was conducted in Thailand using a water volume of 500 L/ha of water per application unless otherwise indicated. Insect Damage ([…] %), Insect Damage (Number) and Phytotoxicity were assessed at various treatment evaluation intervals. Population levels were recorded by counting number of rice plants per hill, number of white head (damage from rice stem borer) followed by calculation of % insect damage. Trial 4 was conducted in Thailand using a water volume of 500 L/ha of water per application unless otherwise indicated. Insect Damage ([…] %), Insect Damage (Number) and Phytotoxicity were assessed at various treatment evaluation intervals. Population levels were recorded by counting number of rice plants per hill, number of white head (damage from rice stem borer) followed by calculation of % insect damage.

[1] = 0 DAA, water volume 500 L/ha, rate in treatment name, Prevathon 0.5 L/ha, listed as PA 585 g/ha
[2] = 0 DAA, water volume 500 L/ha, rate in treatment name, Prevathon 0.5 L/ha, listed as PA 975 g/ha
[3] = 0 DAA, water volume 500 L/ha, rate in treatment name, Prevathon 0.5 L/ha, listed as PA 1300 g/ha
[4] = 0 DAA, water volume 500 L/ha, rate in treatment name, Prevathon 0.5 L/ha, listed as PA 2600 g/ha
[5] = 0 DAB, water volume 500 L/ha, rate in treatment name, Prevathon 0.5 L/ha, listed as PA 585 g/ha
[6] = 0 DAB, water volume 500 L/ha, rate in treatment name, Prevathon 0.5 L/ha, listed as PA 975 g/ha
[7] = 0 DAB, water volume 500 L/ha, rate in treatment name, Prevathon 0.5 L/ha, listed as PA 1300 g/ha
[8] = 0 DAB, water volume 500 L/ha, rate in treatment name, Prevathon 0.5 L/ha, listed as PA 2600 g/ha
[9] = 7 DAA, water volume 500 L/ha, rate in treatment name, Prevathon 0.5 L/ha, listed as PA 585 g/ha
[10] = 7 DAA, water volume 500 L/ha, rate in treatment name, Prevathon 0.5 L/ha, listed as PA 975 g/ha
[11] = 7 DAA, water volume 500 L/ha, rate in treatment name, Prevathon 0.5 L/ha, listed as PA 1300 g/ha
[12] = 7 DAA, water volume 500 L/ha, rate in treatment name, Prevathon 0.5 L/ha, listed as PA 2600 g/ha
[13] = 7 DAB, water volume 500 L/ha, rate in treatment name, Prevathon 0.5 L/ha, listed as PA 585 g/ha
[14] = 7 DAB, water volume 500 L/ha, rate in treatment name, Prevathon 0.5 L/ha, listed as PA 975 g/ha
[15] = 7 DAB, water volume 500 L/ha, rate in treatment name, Prevathon 0.5 L/ha, listed as PA 1300 g/ha
[16] = 7 DAB, water volume 500 L/ha, rate in treatment name, Prevathon 0.5 L/ha, listed as PA 2600 g/ha
[17] = 10 DAA, water volume 500 L/ha, rate in treatment name, Prevathon 0.5 L/ha, listed as PA 585 g/ha
[18] = 10 DAA, water volume 500 L/ha, rate in treatment name, Prevathon 0.5 L/ha, listed as PA 975 g/ha
[19] = 10 DAA, water volume 500 L/ha, rate in treatment name, Prevathon 0.5 L/ha, listed as PA 1300 g/ha
[20] = 10 DAA, water volume 500 L/ha, rate in treatment name, Prevathon 0.5 L/ha, listed as PA 2600 g/ha
[21] = 10 DAB, water volume 500 L/ha, rate in treatment name, Prevathon 0.5 L/ha, listed as PA 585 g/ha
[22] = 10 DAB, water volume 500 L/ha, rate in treatment name, Prevathon 0.5 L/ha, listed as PA 975 g/ha
[23] = 10 DAB, water volume 500 L/ha, rate in treatment name, Prevathon 0.5 L/ha, listed as PA 1300 g/ha
[24] = 10 DAB, water volume 500 L/ha, rate in treatment name, Prevathon 0.5 L/ha, listed as PA 2600 g/ha
[25] = 14 DAB, water volume 500 L/ha, rate in treatment name, Prevathon 0.5 L/ha, listed as PA 585 g/ha
[26] = 14 DAB, water volume 500 L/ha, rate in treatment name, Prevathon 0.5 L/ha, listed as PA 975 g/ha
[27] = 14 DAB, water volume 500 L/ha, rate in treatment name, Prevathon 0.5 L/ha, listed as PA 1300 g/ha
[28] = 14 DAB, water volume 500 L/ha, rate in treatment name, Prevathon 0.5 L/ha, listed as PA 2600 g/ha
[29] = 21 DAB, water volume 500 L/ha, rate in treatment name, Prevathon 0.5 L/ha, listed as PA 585 g/ha
[30] = 21 DAB, water volume 500 L/ha, rate in treatment name, Prevathon 0.5 L/ha, listed as PA 975 g/ha
[31] = 21 DAB, water volume 500 L/ha, rate in treatment name, Prevathon 0.5 L/ha, listed as PA 1300 g/ha

CCCCCCCCC(=O)O [PA 650 g/ha, pelargonic acid]
DAMINS % (insect damage, % white heads) (0 DAA, water volume 200 L/ha): 0.83% | DAMINS (number): mean number of insect damage (white head symptoms) (0 DAA, water volume 200 L/ha): 3.4 | DAMINS % (insect damage, % white heads) [1]: 0.79% | DAMINS (number): mean number of insect damage (white head symptoms) [1]: 3.23 | DAMINS % (insect damage, % white heads) [2]: 0.9% | DAMINS (number): mean number of insect damage (white head symptoms) [2]: 3.8 | DAMINS % (insect damage, % white heads) [3]: 0.75% | DAMINS (number): mean number of insect damage (white head symptoms) [3]: 3.11 | DAMINS % (insect damage, % white heads) [4]: 0.74% | DAMINS (number): mean number of insect damage (white head symptoms) [4]: 3.14 | DAMINS % (insect damage, % white heads) (0 DAB, water volume 200 L/ha): 0.25% | DAMINS (number): mean number of insect damage (white head symptoms) (0 DAB, water volume 200 L/ha): 0.94 | DAMINS % (insect damage, % white heads) [5]: 0.6% | DAMINS (number): mean number of insect damage (white head symptoms) [5]: 2.54 | DAMINS % (insect damage, % white heads) [6]: 0.46% | DAMINS (number): mean number of insect damage (white head symptoms) [6]: 1.91 | DAMINS % (insect damage, % white heads) [7]: 0.39% | DAMINS (number): mean number of insect damage (white head symptoms) [7]: 1.61 | DAMINS % (insect damage, % white heads) [8]: 0.29% | DAMINS (number): mean number of insect damage (white head symptoms) [8]: 1.23 | DAMINS % (insect damage, % white heads) (7 DAA, water volume 200 L/ha): 0.29% | DAMINS (number): mean number of insect damage (white head symptoms) (7 DAA, water volume 200 L/ha): 1.16 | DAMINS % (insect damage, % white heads) [9]: 0.65% | DAMINS (number): mean number of insect damage (white head symptoms) [9]: 2.93 | DAMINS % (insect damage, % white heads) [10]: 0.53% | DAMINS (number): mean number of insect damage (white head symptoms) [10]: 2.13 | DAMINS % (insect damage, % white heads) [11]: 0.4% | DAMINS (number): mean number of insect damage (white head symptoms) [11]: 1.74 | DAMINS % (insect damage, % white heads) [12]: 0.39% | DAMINS (number): mean number of insect damage (white head symptoms) [12]: 1.79 | DAMINS % (insect damage, % white heads) (7 DAB, water volume 200 L/ha): 0.55% | DAMINS (number): mean number of insect damage (white head symptoms) (7 DAB, water volume 200 L/ha): 2.4 | DAMINS % (insect damage, % white heads) [13]: 0.84% | DAMINS (number): mean number of insect damage (white head symptoms) [13]: 3.82 | DAMINS % (insect damage, % white heads) [14]: 0.73% | DAMINS (number): mean number of insect damage (white head symptoms) [14]: 3.31 | DAMINS % (insect damage, % white heads) [15]: 0.64% | DAMINS (number): mean number of insect damage (white head symptoms) [15]: 2.84 | DAMINS % (insect damage, % white heads) [16]: 0.49% | DAMINS (number): mean number of insect damage (white head symptoms) [16]: 2.24 | DAMINS % (insect damage, % white heads) (10 DAA, water volume 200 L/ha): 0.25% | DAMINS (number): mean number of insect damage (white head symptoms) (10 DAA, water volume 200 L/ha): 0.99 | DAMINS % (insect damage, % white heads) [17]: 0.63% | DAMINS (number): mean number of insect damage (white head symptoms) [17]: 2.92 | DAMINS % (insect damage, % white heads) [18]: 0.58% | DAMINS (number): mean number of insect damage (white head symptoms) [18]: 2.26 | DAMINS % (insect damage, % white heads) [19]: 0.41% | DAMINS (number): mean number of insect damage (white head symptoms) [19]: 1.77 | DAMINS % (insect damage, % white heads) [20]: 0.31% | DAMINS (number): mean number of insect damage (white head symptoms) [20]: 1.49 | DAMINS % (insect damage, % white heads) (10 DAB, water volume 200 L/ha): 0.44% | DAMINS (number): mean number of insect damage (white head symptoms) (10 DAB, water volume 200 L/ha): 1.84 | DAMINS % (insect damage, % white heads) [21]: 0.71% | DAMINS (number): mean number of insect damage (white head symptoms) [21]: 3.39 | DAMINS % (insect damage, % white heads) [22]: 0.66% | DAMINS (number): mean number of insect damage (white head symptoms) [22]: 3.11 | DAMINS % (insect damage, % white heads) [23]: 0.38% | DAMINS (number): mean number of insect damage (white head symptoms) [23]: 1.65 | DAMINS % (insect damage, % white heads) [24]: 0.33% | DAMINS (number): mean number of insect damage (white head symptoms) [24]: 1.39 | DAMINS % (insect damage, % white heads) (14 DAB, water volume 200 L/ha): 0.39% | DAMINS (number): mean number of insect damage (white head symptoms) (14 DAB, water volume 200 L/ha): 1.53 | DAMINS % (insect damage, % white heads) [25]: 0.56% | DAMINS (number): mean number of insect damage (white head symptoms) [25]: 2.35 | DAMINS % (insect damage, % white heads) [26]: 0.64% | DAMINS (number): mean number of insect damage (white head symptoms) [26]: 2.82 | DAMINS % (insect damage, % white heads) [27]: 0.45% | DAMINS (number): mean number of insect damage (white head symptoms) [27]: 1.94 | DAMINS % (insect damage, % white heads) [28]: 0.3% | DAMINS (number): mean number of insect damage (white head symptoms) [28]: 1.25 | DAMINS % (insect damage, % white heads) (21 DAB, water volume 200 L/ha): 0.36% | DAMINS (number): mean number of insect damage (white head symptoms) (21 DAB, water volume 200 L/ha): 1.47 | DAMINS % (insect damage, % white heads) [29]: 0.8% | DAMINS (number): mean number of insect damage (white head symptoms) [29]: 3.41 | DAMINS % (insect damage, % white heads) [30]: 0.6% | DAMINS (number): mean number of insect damage (white head symptoms) [30]: 2.7 | DAMINS % (insect damage, % white heads) [31]: 0.39% | DAMINS (number): mean number of insect damage (white head symptoms) [31]: 1.64
